Source: patent publication US11213030B2, “4-(3,4-dihydronaphth-1-yl or 2H-chromen-4-yl)-5-hydroxy-2H-pyradizin-3-ones as herbicides” (FMC Corporation, priority 2017, dated 2022)

How the values were obtained:
Format in all cases: in vivo
[1] = system: kochia (Kochia scoparia); experiment: Test A postemergence, kochia; details: 0 to 100 scale
Description: (§1) Seeds of plant species selected from barnyardgrass (Echinochloa crus-galli), kochia (Kochia scoparia), ragweed (common ragweed, Ambrosia elatior), ryegrass, It. (Italian ryegrass, Lolium multiflorum), foxtail, green (green foxtail, Setaria viridis), and pigweed (Amaranthus retroflexus) were planted into a blend of loam soil and sand and treated preemergence with a directed soil spray using test chemicals formulated in a non-phytotoxic solvent mixture which included a surfactant. At the same time, plants selected from these weed species and also wheat (Triticum aestivum), corn (Zea mays), blackgrass (Alopecurus myosuroides), and galium (catchweed bedstraw, Galium aparine) were planted in pots containing the same blend of loam soil and sand and treated with postemergence applications of test chemicals formulated in the same manner. Plants ranged in height from 2 to 10 cm and were in the one- to two-leaf stage for the postemergence treatment. Treated plants and untreated controls were maintained in a greenhouse for approximately 10 d, after which time all treated plants were compared to untreated controls and visually evaluated for injury. Plant response ratings, summarized in Table A, are based on a 0 to 100 scale where 0 is no effect and 100 is complete control. A dash (-) response means no test result.

[2] = system: ragweed (common ragweed, Ambrosia elatior); experiment: Test A postemergence, ragweed; details: 0 to 100 scale
Description: as §1

[3] = system: wheat (Triticum aestivum); experiment: Test A postemergence, wheat; details: 0 to 100 scale
Description: as §1

[4] = system: pigweed (Amaranthus retroflexus); experiment: Test A preemergence, pigweed; details: 0 to 100 scale
Description: as §1

[5] = system: foxtail, green (green foxtail, Setaria viridis); experiment: Test A preemergence, green foxtail; details: 0 to 100 scale
Description: as §1

[6] = system: barnyardgrass (Echinochloa crus-galli); experiment: Test A postemergence, barnyardgrass; details: 0 to 100 scale
Description: as §1

[7] = system: galium (catchweed bedstraw, Galium aparine); experiment: Test A postemergence, galium; details: 0 to 100 scale
Description: as §1

[8] = system: corn (Zea mays); experiment: Test A postemergence, corn; details: 0 to 100 scale
Description: as §1

[9] = system: blackgrass (Alopecurus myosuroides); experiment: Test A postemergence, blackgrass; details: 0 to 100 scale
Description: as §1

[10] = system: kochia (Kochia scoparia); experiment: Test A preemergence, kochia; details: 0 to 100 scale
Description: as §1

[11] = system: foxtail, green (green foxtail, Setaria viridis); experiment: Test A postemergence, green foxtail; details: 0 to 100 scale
Description: as §1

[12] = system: pigweed (Amaranthus retroflexus); experiment: Test A postemergence, pigweed; details: 0 to 100 scale
Description: as §1

[13] = system: ryegrass, It. (Italian ryegrass, Lolium multiflorum); experiment: Test A preemergence, Italian ryegrass; details: 0 to 100 scale
Description: as §1

[14] = system: ryegrass, It. (Italian ryegrass, Lolium multiflorum); experiment: Test A postemergence, Italian ryegrass; details: 0 to 100 scale
Description: as §1

[15] = system: ragweed (common ragweed, Ambrosia elatior); experiment: Test A preemergence, ragweed; details: 0 to 100 scale
Description: as §1

[16] = system: barnyardgrass (Echinochloa crus-galli); experiment: Test A preemergence, barnyardgrass; details: 0 to 100 scale
Description: as §1

[17] = system: ducksalad (Heteranthera limosa); experiment: Test B flooded paddy test, ducksalad; details: Flood, 250 g ai/ha applied to paddy water, 2-leaf stage, 13 to 15 d; scale of 0 to 100 where 0 is no effect and 100 is complete control
Method: (§2) Plant species in the flooded paddy test selected from rice (Oryza sativa), sedge, umbrella (small-flower umbrella sedge, Cyperus difformis), ducksalad (Heteranthera limosa), and barnyardgrass (Echinochloa crus-galli) were grown to the 2-leaf stage for testing. At the time of treatment, test pots were flooded to 3 cm above the soil surface, treated by application of test compounds directly to the paddy water, and then maintained at that water depth for the duration of the test. Treated plants and controls were maintained in a greenhouse for 13 to 15 d, after which time all species were compared to controls and visually evaluated. Plant response ratings, summarized in Table B, are based on a scale of 0 to 100 where 0 is no effect and 100 is complete control. A dash (-) response means no test result.

[18] = system: sedge, umbrella (small-flower umbrella sedge, Cyperus difformis); experiment: Test B flooded paddy test, umbrella sedge; details: Flood, 250 g ai/ha applied to paddy water, 2-leaf stage, 13 to 15 d; scale of 0 to 100 where 0 is no effect and 100 is complete control
Method: as §2

[19] = system: barnyardgrass (Echinochloa crus-galli); experiment: Test B flooded paddy test, barnyardgrass; details: Flood, 250 g ai/ha applied to paddy water, 2-leaf stage, 13 to 15 d; scale of 0 to 100 where 0 is no effect and 100 is complete control
Method: as §2

[20] = system: rice (Oryza sativa); experiment: Test B flooded paddy test, rice; details: Flood, 250 g ai/ha applied to paddy water, 2-leaf stage, 13 to 15 d; scale of 0 to 100 where 0 is no effect and 100 is complete control
Method: as §2

## COc1c(C)nn(C)c(=O)c1C1=C(C)CCc2ccccc21 [Compound 1, 4-(3,4-dihydro-2-methyl-1-naphthalenyl)-5-methoxy-2,6-dimethyl-3(2H)-pyridazinone]
[1]; 1000 g ai/ha
  Plant response rating, Kochia: 20
[2]; 1000 g ai/ha
  Plant response rating, Ragweed: 90
[3]; 1000 g ai/ha
  Plant response rating, Wheat: 0
[4]; 1000 g ai/ha
  Plant response rating, Pigweed: 60
[5]; 1000 g ai/ha
  Plant response rating, Foxtail, Green: 70
[6]; 1000 g ai/ha, 0 no effect, 100 complete control
  Plant response rating, Barnyardgrass: 60
[7]; 1000 g ai/ha
  Plant response rating, Galium: 100
[8]; 1000 g ai/ha
  Plant response rating, Corn: 10
[9]; 1000 g ai/ha
  Plant response rating, Blackgrass: 70
[10]; 1000 g ai/ha
  Plant response rating, Kochia: 70
[11]; 1000 g ai/ha
  Plant response rating, Foxtail, Green: 60
[12]; 1000 g ai/ha
  Plant response rating, Pigweed: 80
[13]; 1000 g ai/ha
  Plant response rating, Ryegrass, It.: 100
[14]; 1000 g ai/ha
  Plant response rating, Ryegrass, Italian: 90
[15]; 1000 g ai/ha
  Plant response rating, Ragweed: 100
[16]; 1000 g ai/ha
  Plant response rating, Barnyardgrass: 80

## CC1=C(c2c(O)c(C)nn(C)c2=O)c2ccccc2CC1 [Compound 2, 4-(3,4-dihydro-2-methyl-1-naphthalenyl)-5-hydroxy-2,6-dimethyl-3(2H)-pyridazinone]
[1]; 125 g ai/ha
  Plant response rating, Kochia: 80
[1]; 500 g ai/ha
  Plant response rating, Kochia: 90
[2]; 125 g ai/ha
  Plant response rating, Ragweed: 80
[2]; 500 g ai/ha
  Plant response rating, Ragweed: 90
[3]; 125 g ai/ha
  Plant response rating, Wheat: 0
[3]; 500 g ai/ha
  Plant response rating, Wheat: 0
[4]; 125 g ai/ha
  Plant response rating, Pigweed: 0
[4]; 500 g ai/ha
  Plant response rating, Pigweed: 80
[5]; 125 g ai/ha
  Plant response rating, Foxtail, Green: 0
[5]; 500 g ai/ha
  Plant response rating, Foxtail, Green: 0
[6]; 125 g ai/ha
  Plant response rating, Barnyardgrass: 0
[6]; 500 g ai/ha
  Plant response rating, Barnyardgrass: 20
[7]; 125 g ai/ha
  Plant response rating, Galium: 90
[7]; 500 g ai/ha
  Plant response rating, Galium: 100
[17]
  Plant response rating, Ducksalad: 0
[8]; 125 g ai/ha
  Plant response rating, Corn: 10
[8]; 500 g ai/ha
  Plant response rating, Corn: 10
[9]; 125 g ai/ha
  Plant response rating, Blackgrass: 0
[9]; 500 g ai/ha
  Plant response rating, Blackgrass: 20
[10]; 125 g ai/ha
  Plant response rating, Kochia: 0
[10]; 500 g ai/ha
  Plant response rating, Kochia: 80
[11]; 125 g ai/ha
  Plant response rating, Foxtail, Green: 10
[11]; 500 g ai/ha
  Plant response rating, Foxtail, Green: 70
[12]; 125 g ai/ha
  Plant response rating, Pigweed: 80
[12]; 500 g ai/ha
  Plant response rating, Pigweed: 90
[18]
  Plant response rating, Sedge, Umbrella: 0
[19]
  Plant response rating, Barnyardgrass: 0
[13]; 125 g ai/ha
  Plant response rating, Ryegrass, It.: 40
[13]; 500 g ai/ha
  Plant response rating, Ryegrass, It.: 50
[14]; 125 g ai/ha
  Plant response rating, Ryegrass, It.: 60
[14]; 500 g ai/ha
  Plant response rating, Ryegrass, Italian: 100
[15]; 125 g ai/ha
  Plant response rating, Ragweed: 40
[15]; 500 g ai/ha
  Plant response rating, Ragweed: 90
[20]
  Plant response rating, Rice: 0
[16]; 125 g ai/ha
  Plant response rating, Barnyardgrass: 0
[16]; 500 g ai/ha
  Plant response rating, Barnyardgrass: 0

## CC1=C(c2c(O)c(C)nn(C)c2=O)c2ccccc2OC1 [Compound 3, 5-hydroxy-2,6-dimethyl-4-(3-methyl-2H-1-benzopyran-4-yl)-3(2H)-pyridazinone]
[1]; 125 g ai/ha
  Plant response rating, Kochia: 70
[1]; 500 g ai/ha
  Plant response rating, Kochia: 90
[2]; 125 g ai/ha
  Plant response rating, Ragweed: 60
[2]; 500 g ai/ha
  Plant response rating, Ragweed: 90
[3]; 125 g ai/ha
  Plant response rating, Wheat: 0
[3]; 500 g ai/ha
  Plant response rating, Wheat: 0
[4]; 125 g ai/ha
  Plant response rating, Pigweed: 10
[4]; 500 g ai/ha
  Plant response rating, Pigweed: 60
[5]; 125 g ai/ha
  Plant response rating, Foxtail, Green: 0
[5]; 500 g ai/ha
  Plant response rating, Foxtail, Green: 0
[6]; 125 g ai/ha
  Plant response rating, Barnyardgrass: 0
[6]; 500 g ai/ha
  Plant response rating, Barnyardgrass: 10
[17]
  Plant response rating, Ducksalad: 0
[8]; 125 g ai/ha
  Plant response rating, Corn: 0
[8]; 500 g ai/ha
  Plant response rating, Corn: 10
[9]; 125 g ai/ha
  Plant response rating, Blackgrass: 0
[9]; 500 g ai/ha
  Plant response rating, Blackgrass: 10
[10]; 125 g ai/ha
  Plant response rating, Kochia: 10
[10]; 500 g ai/ha
  Plant response rating, Kochia: 30
[11]; 125 g ai/ha
  Plant response rating, Foxtail, Green: 0
[11]; 500 g ai/ha
  Plant response rating, Foxtail, Green: 20
[12]; 125 g ai/ha
  Plant response rating, Pigweed: 80
[12]; 500 g ai/ha
  Plant response rating, Pigweed: 100
[18]
  Plant response rating, Sedge, Umbrella: 50
[19]
  Plant response rating, Barnyardgrass: 0
[13]; 125 g ai/ha
  Plant response rating, Ryegrass, It.: 0
[13]; 500 g ai/ha
  Plant response rating, Ryegrass, It.: 10
[14]; 125 g ai/ha
  Plant response rating, Ryegrass, It.: 10
[14]; 500 g ai/ha
  Plant response rating, Ryegrass, Italian: 60
[15]; 125 g ai/ha
  Plant response rating, Ragweed: 0
[15]; 500 g ai/ha
  Plant response rating, Ragweed: 50
[20]
  Plant response rating, Rice: 0
[16]; 125 g ai/ha
  Plant response rating, Barnyardgrass: 0
[16]; 500 g ai/ha
  Plant response rating, Barnyardgrass: 0

## CC1=C(c2c(O)c(C)nn(C)c2=O)c2cc(C)ccc2CC1 [Compound 4]
[1]; 31 g ai/ha
  Plant response rating, Kochia: 0
[1]; 125 g ai/ha
  Plant response rating, Kochia: 20
[2]; 31 g ai/ha
  Plant response rating, Ragweed: 0
[2]; 125 g ai/ha
  Plant response rating, Ragweed: 20
[3]; 31 g ai/ha
  Plant response rating, Wheat: 0
[3]; 125 g ai/ha
  Plant response rating, Wheat: 0
[4]; 31 g ai/ha
  Plant response rating, Pigweed: 0
[4]; 125 g ai/ha
  Plant response rating, Pigweed: 0
[5]; 31 g ai/ha
  Plant response rating, Foxtail, Green: 0
[5]; 125 g ai/ha
  Plant response rating, Foxtail, Green: 0
[6]; 31 g ai/ha
  Plant response rating, Barnyardgrass: 10
[6]; 125 g ai/ha
  Plant response rating, Barnyardgrass: 10
[7]; 31 g ai/ha
  Plant response rating, Galium: 40
[7]; 125 g ai/ha
  Plant response rating, Galium: 70
[17]
  Plant response rating, Ducksalad: 0
[8]; 31 g ai/ha
  Plant response rating, Corn: 0
[8]; 125 g ai/ha
  Plant response rating, Corn: 0
[9]; 31 g ai/ha
  Plant response rating, Blackgrass: 0
[9]; 125 g ai/ha
  Plant response rating, Blackgrass: 0
[10]; 31 g ai/ha
  Plant response rating, Kochia: 0
[10]; 125 g ai/ha
  Plant response rating, Kochia: 0
[11]; 31 g ai/ha
  Plant response rating, Foxtail, Green: 10
[11]; 125 g ai/ha
  Plant response rating, Foxtail, Green: 20
[12]; 31 g ai/ha
  Plant response rating, Pigweed: 50
[12]; 125 g ai/ha
  Plant response rating, Pigweed: 70
[18]
  Plant response rating, Sedge, Umbrella: 0
[19]
  Plant response rating, Barnyardgrass: 0
[13]; 31 g ai/ha
  Plant response rating, Ryegrass, It.: 0
[13]; 125 g ai/ha
  Plant response rating, Ryegrass, It.: 0
[14]; 31 g ai/ha
  Plant response rating, Ryegrass, It.: 0
[14]; 125 g ai/ha
  Plant response rating, Ryegrass, It.: 20
[15]; 31 g ai/ha
  Plant response rating, Ragweed: 0
[15]; 125 g ai/ha
  Plant response rating, Ragweed: 0
[20]
  Plant response rating, Rice: 0
[16]; 31 g ai/ha
  Plant response rating, Barnyardgrass: 0
[16]; 125 g ai/ha
  Plant response rating, Barnyardgrass: 0
